The values below come from a melting point compilation (Tetko et al.; mined from patent text by program, amines drawn as free bases though some values may be those of a salt).

For the compound `Cc1c(F)c(F)cc(C#N)c1Cl`, the melting point (usually the temperature, or range, at which the solid turns liquid) was in the range of 59 to 61 °C.

As for `COc1cc(I)c(C(=O)Oc2ccccc2COC(=O)c2ccc3c(c2I)OCO3)cc1OC`, the melting point lay in the range of 128 to 130 °C.

`O=S(=O)(Cc1ccccc1)c1nnnn1Cc1ccccc1` yielded a melting point of 94 to 96 °C.

For the compound `Cc1nccn1-c1nccc2[nH]c(=O)ccc12`, the melting point was over 310 °C.

Compound `Cn1c(=O)cnc2cccc(Oc3cc(-c4ccc(C(F)(F)F)cc4)ncn3)c21` yielded a melting point of 158 °C.

For `O=C1NCCc2ccc(OCCCCN3CCN(c4cccc5ccc(F)cc45)CC3)nc2N1`, the melting point amounted to 234 °C.

`CCC(Cl)Cc1sc(O)nc1C` (centres undefined) registered a melting point of 84 to 85 °C.

Regarding `O=c1[nH]c2ncc(-c3ccc(-n4cccn4)cc3)nc2n1CCC1CCOCC1`, the melting point lay within 294 to 296 °C.

In turn, `CC(C)(C)OC(=O)NCC(Cl)c1ccco1` (centres undefined) came in with a melting point of 75 to 77 °C.

`CS(=O)(=O)c1ccc(-c2cnn(CC(F)(F)F)c(=O)c2OC2CCCC2)cc1` returned a melting point of 148 to 150 °C.

Turning to `CSC(=NCc1ccc(CCO)cc1)NC#N`, the melting point was 164 to 165 °C.

`Oc1ccc(C2CCc3ccc(O)cc3O2)cc1` (centres undefined) gave a melting point of 110 to 111 °C.

As for `CC(COc1ccc(CCO)cc1)NCC(O)c1ccccc1` (centres undefined), the melting point lay in the range of 93 to 96 °C.

On to `CCCCn1c(=O)c(NC(=O)Nc2c(C(C)C)cc(NCc3cccnc3)cc2C(C)C)c(-c2cccc(OC)c2)c2cccnc21`, for which the melting point fell in the range of 160 to 161 °C.

`C=C(C)C(=O)OCC(COC(=O)C(=C)C)Cc1ccc(-c2ccc(OC(=O)C(=C)C)cc2)cc1` registered a melting point of 49 °C.

In turn, `C1=C(CCc2ccccc2)CCN(Cc2c[nH]c3ccccc23)C1` yielded a melting point of 138 to 140 °C.

As for `Cn1c(=O)cc(C(=O)O)c2cc(C(=O)c3ccc(Cl)cc3)ccc21`, the melting point was over 260 °C.

`CS(=O)(=O)c1ccc(-c2cnn(-c3ccc(F)c(Cl)c3)c(=O)c2Cc2ccc(F)cc2)cc1` had a melting point of 153 to 156 °C.

As to `Cc1c(-c2cccc(O)c2)n(Cc2ccc(OCCN3CCCCC3)cc2)c2ccc(O)cc12`, the melting point was in the range of 115 to 118 °C.

On to `C[C@@H](Nc1ncnc2cc(F)c([N+](=O)[O-])cc12)c1ccccc1`, for which the melting point turned out to be 203 °C.

The compound `COc1ccc(CSc2nnc(-c3ccn4ncnc4c3)o2)cc1C#N` showed a melting point of 247 to 248 °C.

`CC(=O)NC[C@H]1CN(c2ccc(N3CCC(F)(CCl)CC3)c(F)c2)C(=O)O1`: the melting point was 158 to 160 °C.

On to `CN(c1cccc2cc(C3=NCC(CC(N)=O)S3)[nH]c12)S(=O)(=O)c1cccs1` (centres undefined), for which the melting point lay within 193 to 194 °C.

As for `COc1cc2nc(N)nc(-c3c(Br)cc(C)cc3Br)c2cc1OC`, the melting point lay within 235 to 237 °C.

`CNc1cc(F)cc(NC)c1[N+](=O)[O-]` came in with a melting point of 198 °C.

Take `O=C(O)[C@@H]1C[C@@H](C(=O)O)N(C(=O)OCc2ccccc2)C1`: the melting point fell in the range of 98 to 100 °C.

`O=C(NCc1cccc(C(F)(F)F)c1)c1ccc2n1Cc1ccccc1N(C(=O)COc1ccc(Cl)cc1)C2` displayed a melting point of 143 to 145 °C.

For `CCOC(=O)C(=CNC1CC1)C(=O)c1cc(F)c(-n2cccc2)cc1F`, the melting point was 90 to 92 °C.

`CCOC(=O)C(C)Cc1cccc(-c2nc(=O)c3ccccc3s2)n1` (centres undefined) gave a melting point of 120 to 121 °C.

Compound `CCOCC(=O)C(=CN(CC)CC)c1cccc(C(F)(F)F)c1` came in with a melting point of 131 to 133 °C.

Compound `COc1ccc(C(=O)NNc2ccc(NC(=S)Nc3ccccc3)cc2)cc1` came in with a melting point of 178 °C.

Take `COc1ccc(COc2cccnc2N)c(F)c1`: the melting point was 135 to 138 °C.

On to `CCC(c1ccc(Cl)nc1)N(Cc1ccc(C(=O)O)cc1)S(=O)(=O)c1ccc(Cl)cc1` (centres undefined), for which the melting point lay within 111 to 113 °C.

Turning to `O=C(O)C1=CC2(CCSCC2)Oc2ccc([N+](=O)[O-])cc21`, the melting point was in the range of 259 to 261 °C.

Consider `CC(C(=O)N(C)C)n1cc(Br)c(-c2ccccc2)n1` (centres undefined), for which the melting point lay within 90.5 to 91.5 °C.

`Cc1c(-n2ccnc2)n(CCOc2ccc(C(=O)O)cc2)c2ccccc12` had a melting point of over 300 °C.

In turn, `CCCc1c(OCCCOc2ccc(-c3nnn[nH]3)cc2Cl)ccc(C(C)=O)c1O` gave a melting point of 214 to 216 °C.

In turn, `NS(=O)(=O)c1ccc(-n2cc(-c3ccccc3)cc2-c2ccc(F)cc2)cc1` displayed a melting point of 192 to 194 °C.

The compound `Cc1ccc(N)c(-c2nc(C(F)(F)F)cs2)c1` gave a melting point of 100 to 103 °C.

`CCCC1=NN(c2ccc(Br)cc2)C(=O)C1=CNc1ccccc1CC` had a melting point of 127 °C.

The compound `C=C1C(=O)N(C)CCC1c1cccc(OC)c1` (centres undefined) yielded a melting point of 67 to 70 °C.

Consider `CC(C)(C)CN(CC(O)C(Cc1ccccc1)NC(=O)C(CC(N)=O)NC(=O)NCc1ccccc1)C(=O)NC(C)(C)C` (centres undefined), for which the melting point fell in the range of 177 to 178 °C.

`Cn1nc(C#N)nc1NCCCOc1cccc(CN2CCCCC2)c1` had a melting point of 66 to 67 °C.

The compound `Oc1ccc(C2=NCCCO2)cc1` gave a melting point of 196 to 198 °C.

`CCN1CCC(=O)N(c2ccccc2C(C)C)C1=S` registered a melting point of 118 to 122 °C.

Consider `CS(=O)(=O)N1C[C@H](S)C[C@H]1COC(=O)Nc1ccccc1`, for which the melting point is 148 °C.

Consider `CCCCOc1ccc(S(C)(=O)=O)cc1-c1nc2c(CC)n(CCOC)nc2c(=O)[nH]1`, for which the melting point was in the range of 174 to 176 °C.

The compound `Oc1cccc2ccc3cccnc3c12` yielded a melting point of 104 °C.

`O=C(O)CCCCOc1ccccc1OCc1ccccc1` gave a melting point of 74 to 75 °C.

`CN1C(=O)CC[C@]2(C)c3ccc(-c4cccc(C=O)c4)cc3CC[C@@H]12`: the melting point worked out at 163 °C.

In the case of `CC1(CO)Cc2c(cc(C(C)(C)C)c(O)c2C(C)(C)C)O1` (centres undefined), the melting point was in the range of 126 to 128 °C.

`Cc1ncc(C(=S)Nc2c(Cl)cncc2Cl)cc1OC1CCCC1` had a melting point of 144 to 145 °C.

As for `CSC(C)=NOC(=O)N(C)SN(C(C)C)P1(=O)OCCCO1`, the melting point was 134 to 135 °C.

`COC(=O)c1sc(C(C)(C)C)cc1NC(=O)Nc1ccc(F)cc1`: the melting point lay in the range of 160 to 162 °C.

In turn, `CCCN(Cc1ccc(-c2ccccc2-c2nnn[nH]2)cc1)c1nn(C)cc1C(=O)O` gave a melting point of 101 to 105 °C.

With `COc1ccc(C2CN(C(C)=O)C(=O)O2)cc1OC` (centres undefined), the melting point lay in the range of 175 to 182 °C.

For the compound `CS(=O)c1cn(-c2c(Cl)cc(C(F)(F)F)cc2Cl)nc1C=NO` (centres undefined), the melting point was in the range of 239 to 240 °C.

In turn, `O=C(C=Cc1cccc(-c2ccccc2)c1)Nc1ccc(CN2CCCCC2)cc1` showed a melting point of 159 to 160 °C.

The compound `O=C(O)c1ccc(Nc2nccc(-c3cccnc3)n2)cc1` gave a melting point of 311 to 317 °C.

`Nc1cc(C[C@H](Nc2nc3ccc(Cl)cc3cc2C(=O)O)C(=O)O)ccc1Oc1nc2ccc(Cl)cc2cc1C(=O)O` had a melting point of over 250 °C.

Consider `Cc1ccc(-c2c(C(=O)NCc3cc(C(F)(F)F)cc(C(F)(F)F)c3)oc(=O)c3cnccc23)cc1`, for which the melting point lay within 188 to 189 °C.

As for `COc1ccc(N2CCN(c3ccc([N+](=O)[O-])nc3)CC2)cc1`, the melting point was in the range of 186 to 188 °C.

In turn, `COC1CN(Cc2ccc(Nc3cc(-c4cccc(-n5ncc6cc(C(C)(C)C)cc(F)c6c5=O)c4CO)nn(C)c3=O)nc2)C1` gave a melting point of 140 to 142 °C.

As to `CC(S)C(Cc1ccccc1)C(=O)Nc1cccc(C(=O)O)c1` (centres undefined), the melting point is 192 to 196 °C.

For the compound `Cc1cc(Cl)cc(CO[C@H]2CCCN(Cc3nc(=O)[nH][nH]3)[C@H]2c2ccccc2)c1`, the melting point fell in the range of 227 to 228 °C.

`CCOc1ccc2c(c1)N=C(c1cccc(-c3ccc(C)nc3)c1)CC(=O)N2` registered a melting point of 173 °C.

In the case of `COc1cc2c(cc1OC)CCN(CCCN(C)C1CCc3cc(OC)c(OC)cc3C1)CC2` (centres undefined), the melting point was 92 to 93 °C.

Take `CC(=O)c1nc2cc(C(F)(F)F)c(Cl)cc2n1-c1ccc(CCNC(=O)NS(=O)(=O)c2ccc(C)cc2)cc1`: the melting point was 225 °C.

On to `CCOC(=O)C[C@@H]1C(=O)N(S(=O)(=O)c2ccc(OC)cc2)C=C[C@@H]1c1ccccc1`, for which the melting point was 111 to 113 °C.

In turn, `Nc1ccc(OC2(c3ccccc3)CCN(Cc3ccccc3)CC2)cc1` displayed a melting point of 124 to 126 °C.

Regarding `N#Cc1ccc(N(Cc2ccc(OCc3ccccc3)cc2)n2cnnc2)cc1-c1cc2ccccc2o1`, the melting point was 200 to 201 °C.

Compound `O=CC(CC(=O)c1ccc(F)cc1)c1ccccc1` (centres undefined) came in with a melting point of 192 to 194 °C.

Compound `COc1cc2c(cc1OC)N(C)C(=O)CN=C2c1cccc(C=O)c1` had a melting point of 175 to 178 °C.

`O=C1C(c2ccccc2)=C(c2cccc(Cl)c2)C(=O)N1c1ccc(Cl)cc1` yielded a melting point of 51 °C.

For the compound `CCc1ccc2oc(=O)c(NC(=O)Nc3ccc(F)cc3F)c(-c3ccccc3C)c2c1`, the melting point fell in the range of 210 to 211 °C.

In turn, `N#CN(CCN1CCC(C(=O)c2ccc(F)cc2)CC1)C(=N)NCCN1CCC(C(=O)c2ccc(F)cc2)CC1` registered a melting point of 152 to 156 °C.

For the compound `CC(C)C(NC(=O)C(NC(=O)C1CCCN1C(=O)OC(C)(C)C)C(Cc1ccccc1)C(=O)O)C(=O)NC(Cc1ccc(O)cc1)C(=O)OCc1ccccc1` (centres undefined), the melting point lay in the range of 75 to 78 °C.

In the case of `CC(=O)Nc1nc(-c2ccc(F)cc2)c(-c2ccc(=O)n(C(C)C)n2)s1`, the melting point is 236 to 238 °C.

`Cc1ccc(-c2c(C(=O)NCc3cc(C(F)(F)F)cc(C(F)(F)F)c3)n(CCCCCO)c(=O)c3ncccc23)cc1` displayed a melting point of 136 to 137 °C.

The compound `N=C(Nc1ccc(CN(Cc2ccccc2)Cc2ccccc2)cc1)c1cccs1` yielded a melting point of 127 to 128 °C.

Compound `O=C(NCC12CC3CC(CC(C3)C1)C2)c1cc(-c2cc(F)cnc2N2CCC(C(=O)O)CC2)ccc1Cl` had a melting point of 130 to 135 °C.

Consider `CC(NC(=O)OC(C)(C)C)C(=O)Nc1cc(OCC(F)(F)F)ccc1-c1cccnc1` (centres undefined), for which the melting point is 149 to 152 °C.

Take `CCOc1ccc(-c2nc(CCC(=O)c3ccccc3C(=O)OC)cs2)cc1OCC`: the melting point was 91.7 to 92.9 °C.

Turning to `Cc1[nH]cnc1CSCCNc1[nH]cc(Cc2ccccc2)c1[N+](=O)[O-]`, the melting point was 192 to 193 °C.
